Results: US20230364271A1, “METHODS AND COMPOSITIONS FOR INCREASING UPTAKE, INTERNALIZATION, AND/OR RETENTION OF SMALL MOLECULE LIGANDS” (CORNELL UNIVERSITY, priority 2020, published 2023)

What was measured:
[1] = tested on: LNCaP cells; experiment: Retention of internalized Lu^177-labelled agent in LNCaP cells (Example 1); assay type: cell-based, human; conditions: for efflux out of the cells after internalization: 2 human prostate cancer cell lines (LNCaP and CWR22Rv1); for cell-associated counts retained: LNCaP
Description: (§1) LNCaP or CWR22Rv1 cells were plated into 12-well plates overnight. Lu^177-J591 (0.5 μci/ml/well) or Lu^177-PSMA-617 (0.5 μci/ml/well) was then added, and the cells were incubated for 6 hours at 37° C. to allow internalization. Duplicate wells were used for each time point. After 6 hours of incubation, the cells were washed once with RPMI-10% FBS. 0.6 ml of 1% TritonX-100 was added per well for 2 wells as 0 time point, and 1.5 ml of RPMI-10% FBS was added to the remaining wells. The cells were incubated at 37° C. for 1 to 6 days. On day 1, 2, 3, 5, and 6, the medium was removed and 0.6 ml of 1% TritonX-100 was added to each well. The lysate was collected from each well and all samples were counted at day 6. Results are shown in Table 1 below (in % of time 0 counts) and FIGS. 1A-1B.

[2] = tested on: CWR22Rv1 cells; experiment: Retention of internalized Lu^177-labelled agent in CWR22Rv1 cells (Example 1); assay type: cell-based, human
Description: as §1

[3] = tested on: CWR22rv1 tumors; experiment: Tumor uptake of PSMA-617-Lu^177 in CWR22rv1 xenografts with cold antibody (Example 4); assay type: in vivo, BALB/c nude mice; conditions: PSMA-617-Lu^177 300 μci IV with PBS, day 3 post-injection, average
Description: CWR22rv1 cells (5×10^6 cells/200 μl matrigel/mouse) were injected into 40 BALB/c nude mice. After tumors were established and growing, all mice were injected intravenously (IV) via tail vein with PSMA-617-Lu^177 (300 μci/per mouse) on day 0. The treatment groups were as follows.
All mice were euthanized 3 days after injection of PSMA-617-Lu^177. All tumors were harvested, weighed individually, and radioactivity counted.

For `O=C([O-])CN1CCN(CC(=O)[O-])CCN(CC(=O)NCC2CCC(C(=O)N[C@@H](Cc3ccc4ccccc4c3)C(=O)NCCCC[C@H](NC(=O)N[C@@H](CCC(=O)O)C(=O)O)C(=O)O)CC2)CCN(CC(=O)[O-])CC1.[177Lu+3]` (stereo partly drawn) [Lu^177-PSMA-617], the “efflux out of the cells after internalization” value ([1]; listed as PSMA 617-Lu^177) was “rapidly effluxed back out of the cell soon after internalization”, the “efflux out of the cells after internalization” value ([1]; listed as small molecule ligand) was “rapidly effluxed out of the cells” and the cell-associated counts retained ([1]; 0 time (after 6 h incubation)) was 100.00 % of time 0 counts. For the same compound, the cell-associated counts retained ([1]; Day 1) was 52.21 % of time 0 counts, the cell-associated counts retained ([1]; Day 2) was 56.06 % of time 0 counts and the cell-associated counts retained ([1]; Day 3) was 42.80 % of time 0 counts. The cell-associated counts retained ([1]; Day 5) was 39.12 % of time 0 counts, the cell-associated counts retained ([1]; Day 6) was 35.82 % of time 0 counts and the cell-associated counts retained ([2]; CWR22Rv1, 0 time (after 6 h incubation)) was 100.00 % of time 0 counts. The cell-associated counts retained ([2]; CWR22Rv1, Day 1) was 24.37 % of time 0 counts, the cell-associated counts retained ([2]; CWR22Rv1, Day 2) was 23.99 % of time 0 counts and the cell-associated counts retained ([2]; CWR22Rv1, Day 3) was 10.28 % of time 0 counts. The cell-associated counts retained ([2]; CWR22Rv1, Day 5) was 9.39 % of time 0 counts, the cell-associated counts retained ([2]; CWR22Rv1, Day 6) was 7.64 % of time 0 counts and the tumor radioactivity [3] was 150 cpm/mg of tumor.
